Values after ≈ are worked out from the molar mass of the structure shown.
Assays:
[1] = Solubility of the compound in buffer; assay type: physicochemical
Coagulation factor VII [2] = target: T1, Coagulation factor VII (Homo sapiens, UniProt P08709); assay: Inhibition of recombinant F7a using S-2288 as substrate after 15 mins by linear fitting analysis
T1 sequence (P08709 whole entry): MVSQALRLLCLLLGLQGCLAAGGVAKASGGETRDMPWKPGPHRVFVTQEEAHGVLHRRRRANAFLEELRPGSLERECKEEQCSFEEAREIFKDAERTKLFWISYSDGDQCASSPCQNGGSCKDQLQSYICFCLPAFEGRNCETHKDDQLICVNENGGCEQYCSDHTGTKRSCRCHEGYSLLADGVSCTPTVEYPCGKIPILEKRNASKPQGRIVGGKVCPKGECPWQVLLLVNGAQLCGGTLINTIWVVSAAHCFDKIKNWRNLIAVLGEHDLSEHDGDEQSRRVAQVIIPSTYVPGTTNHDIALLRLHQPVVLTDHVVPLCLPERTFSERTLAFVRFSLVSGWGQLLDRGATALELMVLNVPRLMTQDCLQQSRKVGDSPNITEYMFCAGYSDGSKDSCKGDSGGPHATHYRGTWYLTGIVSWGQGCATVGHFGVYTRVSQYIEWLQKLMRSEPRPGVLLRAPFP

Coagulation factor VII [3] = target: T1, Coagulation factor VII; assay: Inhibition of recombinant F7a using S-2288 as substrate after 15 mins by competitive binding assay
Coagulation factor X [4] = target: T2, Coagulation factor X (Homo sapiens, UniProt P00742); assay: Inhibition of F10a using S-2288 as substrate after 15 mins by competitive binding assay
Prothrombin [5] = target: T3, Prothrombin (Homo sapiens, UniProt P00734); assay: Inhibition of thrombin using S-2288 as substrate after 15 mins by competitive binding assay
Prothrombin [6] = target: T3, Prothrombin; assay: Inhibition of thrombin using S-2288 as substrate after 15 mins by competitive binding assay relative to control
[7] = target: T4, Coagulation factor VII (Homo sapiens) (UniProt P08709); assay: Inhibition of recombinant F7a using S-2288 as substrate after 15 mins by competitive binding assay relative to control
T4 sequence (whole entry): T1 sequence (P08709 whole entry)

Coagulation factor X [8] = target: T2, Coagulation factor X; assay: Inhibition of F10a using S-2288 as substrate after 15 mins by competitive binding assay relative to control

| solubility [1] [µM] | IC50 (Coagulation factor VII [3]) [µM] | SMILES | also measured |
| --- | --- | --- | --- |
| 400 (≈ 271 µg/mL) | 16 | N=C(N)NCCC[C@H](NC(=O)[C@H](Cc1ccccc1)NC(=O)[C@@H](Cc1ccccc1)NC(=O)OCc1ccccc1)C(=O)Cc1ccccc1 | Ki (Coagulation factor VII [2]): 8 µM |
| 400 (≈ 217 µg/mL) | > 1480 | N=C(N)NCCC[C@H](NC(=O)[C@H](Cc1ccccc1)NC(=O)[C@@H](N)Cc1ccccc1)C(=O)Cc1ccccc1 |  |
| 400 (≈ 234 µg/mL) | > 400 | CC(=O)N[C@@H](Cc1ccccc1)C(=O)N[C@@H](Cc1ccccc1)C(=O)N[C@@H](CCCNC(=N)N)C(=O)Cc1ccccc1 |  |
| 400 (≈ 265 µg/mL) | > 580 | CC(C)C[C@H](NC(=O)[C@H](Cc1ccccc1)NS(=O)(=O)Cc1ccccc1)C(=O)N[C@@H](CCCNC(=N)N)C(=O)Cc1ccccc1 |  |
| 400 (≈ 271 µg/mL) | 109 | N=C(N)NCCC[C@H](NC(=O)[C@H](Cc1ccccc1)NC(=O)[C@H](Cc1ccccc1)NC(=O)OCc1ccccc1)C(=O)Cc1ccccc1 | Ki (Coagulation factor VII [2]): 89 µM |
| 400 (≈ 279 µg/mL) | 26 | N=C(N)NCCC[C@H](NC(=O)[C@H](Cc1ccccc1)NC(=O)[C@H](Cc1ccccc1)NS(=O)(=O)Cc1ccccc1)C(=O)Cc1ccccc1 | Ki (Coagulation factor VII [2]): 43 µM |
| 400 (≈ 383 µg/mL) |  | Cc1c(C)c(S(=O)(=O)NC(=N)NCCCC[C@H](NC(=O)[C@H](Cc2ccccc2)NC(=O)[C@H](Cc2ccccc2)NC(=O)OCc2ccccc2)C(=O)Cc2ccccc2)c(C)c2c1OC(C)(C)CC2 |  |
| 400 (≈ 279 µg/mL) | 640 | N=C(N)NCCC[C@H](NC(=O)[C@H](Cc1ccccc1)NC(=O)[C@@H](Cc1ccccc1)NS(=O)(=O)Cc1ccccc1)C(=O)Cc1ccccc1 |  |

The remaining lines, values behind:

| SMILES | solubility [1] [µM] | IC50 (Coagulation factor VII [3]) [µM] | also measured |
| --- | --- | --- | --- |
| C[C@@H](O)[C@H](NC(=O)[C@@H](N)Cc1ccc(O)cc1)C(=O)N[C@@H](CCCNC(=N)N)C(=O)Cc1ccccc1 | 400 (≈ 205 µg/mL) | > 1340 |  |
| Cc1c(C)c(S(=O)(=O)NC(=N)NCCC[C@H](NC(=O)[C@H](Cc2ccccc2)NC(=O)OC(C)(C)C)C(=O)Cc2ccccc2)c(C)c2c1OC(C)(C)CC2 | 400 (≈ 305 µg/mL) |  |  |
| Cc1c(C)c(S(=O)(=O)NC(=N)NCCC[C@H](NC(=O)[C@H](CC(C)C)NC(=O)OC(C)(C)C)C(=O)Cc2ccccc2)c(C)c2c1OC(C)(C)CC2 | 400 (≈ 291 µg/mL) |  |  |
| CC(=O)N[C@@H](Cc1ccccc1)C(=O)N[C@@H](Cc1ccccc1)C(=O)N[C@@H](CCCCNC(=N)NS(=O)(=O)c1c(C)c(C)c2c(c1C)CCC(C)(C)O2)C(=O)Cc1ccccc1 | 400 (≈ 346 µg/mL) |  |  |
| Cc1c(C)c(S(=O)(=O)NC(=N)NCCCC[C@H](NC(=O)[C@H](Cc2ccccc2)NC(=O)[C@@H](Cc2ccccc2)NC(=O)OC(C)(C)C)C(=O)Cc2ccccc2)c(C)c2c1OC(C)(C)CC2 | 400 (≈ 369 µg/mL) |  |  |
| C[C@@H](O)[C@H](NC(=O)[C@@H](N)Cc1ccc(O)cc1)C(=O)N[C@@H](CCCCN=C(N)N)C(=O)Cc1ccccc1 |  |  | IC50 (Coagulation factor X [4]): > 1340 µM; IC50 (Prothrombin [5]): > 1340 µM |
| Cc1c(C)c(S(=O)(=O)NC(=N)NCCCC[C@H](NC(=O)[C@H](Cc2ccccc2)NC(=O)[C@@H](Cc2ccccc2)NC(=O)OCc2ccccc2)C(=O)Cc2ccccc2)c(C)c2c1OC(C)(C)CC2 | 400 (≈ 383 µg/mL) |  |  |
| CC(=O)N[C@@H](Cc1ccc(OCc2ccccc2)cc1)C(=O)N[C@H](C(=O)N[C@@H](CCCCNC(=N)NS(=O)(=O)c1c(C)c(C)c2c(c1C)CCC(C)(C)O2)C(=O)Cc1ccccc1)[C@@H](C)OCc1ccccc1 | 400 (≈ 406 µg/mL) |  |  |
| Cc1c(C)c(S(=O)(=O)NC(=N)NCCC[C@H](NC(=O)[C@@H](NC(=O)OC(C)(C)C)[C@@H](C)OCc2ccccc2)C(=O)Cc2ccccc2)c(C)c2c1OC(C)(C)CC2 | 400 (≈ 322 µg/mL) |  |  |
| Cc1c(C)c(S(=O)(=O)NC(=N)NCCCC[C@H](NC(=O)[C@H](CC(C)C)NC(=O)[C@H](Cc2ccccc2)NC(=O)OC(C)(C)C)C(=O)Cc2ccccc2)c(C)c2c1OC(C)(C)CC2 | 400 (≈ 356 µg/mL) |  |  |
| Cc1c(C)c(S(=O)(=O)NC(=N)NCCCC[C@H](NC(=O)[C@H](Cc2ccccc2)NC(=O)[C@H](Cc2ccccc2)NC(=O)OC(C)(C)C)C(=O)Cc2ccccc2)c(C)c2c1OC(C)(C)CC2 | 400 (≈ 369 µg/mL) |  |  |
| Cc1c(C)c(S(=O)(=O)NC(=N)NCCCC[C@H](NC(=O)[C@H](CC(C)C)NC(=O)[C@H](Cc2ccc(OCc3ccccc3)cc2)NC(=O)OC(C)(C)C)C(=O)Cc2ccccc2)c(C)c2c1OC(C)(C)CC2 | 400 (≈ 398 µg/mL) |  |  |
| C[C@@H](O)[C@H](NC(=O)[C@@H](N)Cc1ccc(O)cc1)C(=O)N[C@@H](CCCCNC(=N)N)C(=O)Cc1ccccc1 |  |  | inhibition (Prothrombin [6]): 5.5%; inhibition [7]: 18.9%; inhibition (Coagulation factor X [8]): 30.4% |
| CC(=O)N[C@@H](Cc1ccc(O)cc1)C(=O)N[C@H](C(=O)N[C@@H](CCCNC(=N)N)C(=O)Cc1ccccc1)[C@@H](C)O | 400 (≈ 222 µg/mL) | > 1340 |  |
| Cc1c(C)c(S(=O)(=O)NC(=N)NCCCC[C@H](NC(=O)[C@@H](NC(=O)[C@H](Cc2ccc(OCc3ccccc3)cc2)NS(=O)(=O)Cc2ccccc2)[C@@H](C)OCc2ccccc2)C(=O)Cc2ccccc2)c(C)c2c1OC(C)(C)CC2 | 400 (≈ 451 µg/mL) |  |  |
| Cc1c(C)c(S(=O)(=O)NC(=N)NCCCC[C@H](NC(=O)[C@H](CC(C)C)NC(=O)[C@H](Cc2ccc(OCc3ccccc3)cc2)NS(=O)(=O)Cc2ccccc2)C(=O)Cc2ccccc2)c(C)c2c1OC(C)(C)CC2 | 400 (≈ 420 µg/mL) |  |  |
